Source: patent US10317393B2, “Alkynyl sugar analogs for labeling and visualization of glycoconjugates in cells” (Academia Sinica, priority 2007, dated 2019)

Key:
Format in all cases: cell-based, human
Hep3B cells [1] = test: Pulse-chase time-lapse microscopy of fucosylated glycans; conditions: 30 minute pulse, biotin/streptavidin-FITC
Procedure: Additional cellular structures are visualized using alternative labeling systems (e.g., WGA lectin used to visualize Golgi apparatus, and Hoechst used to visualize nucleus).
Pulse-chased MOE experiments entail growing cells of interest to log-phase levels and then exposing them to the sugar analogs in the growth medium, as prescribed by standard MOE, but only for a 30 minute pulse, before replenishing with fresh medium devoid of sugars. Post sugar-pulse, the cells are grown for various lengths of time before analysis.
Cells of interest may be grown to log phase and then presented with various derivatized sugars for a limited period of time; for example, 30 minutes. After the limited period of time, the cells are no longer presented with the various sugars. The cells with glycoconjugates incorporating various tagged sugars may then be visualized over time through secondary detection and/or microscopy in relation to various intracellular and intercellular structures, in order to collect data on the trafficking and relative location of tagged and labeled glycoconjugates.

Hep3B cells [2] = test: Confocal microscopy of fluorescently labeled glycoconjugates; conditions: 200 micromolar Fuc or 25 micromolar ManNAc analogs, 3 days; probe 6 or 7
Procedure: (§1) One exemplary implementation of the disclosure provides a method to visualize the localization of glycoconjugates using alkynyl sugar tagging. To visualize the localization of glycoconjugates tagged with alkynyl sugars, adherent cells are grown on slides in the presence or absence of derivatized alkynyl sugars. After a 3-day-incubation, cells attached to the slides are fixed, permeabilized, and labeled with either biotin probe 6 or fluorogenic probe 7 for fluorescent signal analysis with confocal microscopy (FIGS. 4, 5, 10A, 10B and 11). For comparison, samples are also stained with wheat germ agglutinin (WGA, a Golgi marker) and Hoechst 33342 (marker for cell nuclei).
(§2) Human hepatocellular carcinoma cells (Hep3B) or breast adenocarcinoma cells (MCF-7) were seeded onto six-well plates (3×10^5/2 ml per well) containing glass coverslips, and were cultivated in 10% FCS/DMEM or 10% FCS/RPMI medium 1640. […]

MCF-7 cells = test: as above; conditions: 200 micromolar Fuc or 25 micromolar ManNAc analogs, 3 days; probe 6 or 7
Procedure: as §1, §2

1,2,3,4-tetraacetyl alkynyl fucose [alkynyl Fuc 1]
signal for fucosylated glycans co-localized with Golgi marker after pulse (Hep3B cells [1]): co-localized yellow signal as early as 2 h
labeling signal by confocal microscopy (Hep3B cells [2]): strong punctate-labeling signal
labeling signal by confocal microscopy (MCF-7 cells): strong punctate-labeling signal
